Measured values: PMC9837035 (Nature Communications, 2023)
Values joined by “and” are separate entries in the source; they are usually repeats but may differ in a detail not shown here. Identical values can stand only once. Like-named read-outs stand apart in the source and are kept apart here.

Assays:
EZH2 = EZH2 (Homo sapiens, UniProt Q15910); test: Radioisotope-based methyltransferase assay (selectivity)
[1] = Pharmacokinetic (PK) assay; assay type: in vivo, mice
Experimental: PK studies were performed using 8-week-old male Crl:CD1 ICR mice in accordance with the animal experimental protocol, and procedures were approved by the Animal Care and Ethics Committee of Sekisui Medical. […] […] RK-701 in samples were analyzed by liquid chromatography-tandem mass spectrometry (LC–MS/MS) after deproteinization with acetonitrile. […] PK parameters were calculated using the program Phenix WinNolin (Certara).
The LC-MS/MS system comprised of ACQUITY Ultra Performance LC (Waters) and 4000 QTRAP (Sciex). Acquity UPLC BEH C18 (2.1 × 50 mm, 1.7 μm, Waters) was used as analytical column. The mobile phase consisted of 0.1% formic acid in water (mobile phase A) and acetonitrile (mobile phase B) at a total flow rate of 0.5 mL/min with a column temperature of 40 °C. The chromatographic separation was achieved using gradient elution. The gradient program was: 20% B from 0.0–0.1 min, 20–95% B from 0.1–1.5 min, 95–95% B from 1.5–2.0 min, and 20% B from 2.01–3.0 min. The MS/MS instrument was operated in positive-ion mode with an ion spray voltage of 4200 V, entrance potential of 10 V and source temperature at 600 °C. The curtain gas was set at 12 psi, ion source gas 1 at 40 psi, ion source gas 2 at 50 psi. […] Data acquisition and quantitation were performed by using Analyst (ver.1.4.3, Sciex).

[2] = Hematological and hepatic parameters, 2-week repeated oral dosing; assay type: in vivo; conditions: rats, individual animals 1-5
[3] = male, Crl:CD1 ICR, mouse, ip, mice, plasma, single intraperitoneal 25 mg/kg
[4] = RK-701 10 mg/kg for two weeks, 10 mg/kg
[5] = RK-701 30 mg/kg for two weeks, 30 mg/kg
[6] = RK-701 100 mg/kg for two weeks, 100 mg/kg

Chain of EZH2 (Q15910 whole entry): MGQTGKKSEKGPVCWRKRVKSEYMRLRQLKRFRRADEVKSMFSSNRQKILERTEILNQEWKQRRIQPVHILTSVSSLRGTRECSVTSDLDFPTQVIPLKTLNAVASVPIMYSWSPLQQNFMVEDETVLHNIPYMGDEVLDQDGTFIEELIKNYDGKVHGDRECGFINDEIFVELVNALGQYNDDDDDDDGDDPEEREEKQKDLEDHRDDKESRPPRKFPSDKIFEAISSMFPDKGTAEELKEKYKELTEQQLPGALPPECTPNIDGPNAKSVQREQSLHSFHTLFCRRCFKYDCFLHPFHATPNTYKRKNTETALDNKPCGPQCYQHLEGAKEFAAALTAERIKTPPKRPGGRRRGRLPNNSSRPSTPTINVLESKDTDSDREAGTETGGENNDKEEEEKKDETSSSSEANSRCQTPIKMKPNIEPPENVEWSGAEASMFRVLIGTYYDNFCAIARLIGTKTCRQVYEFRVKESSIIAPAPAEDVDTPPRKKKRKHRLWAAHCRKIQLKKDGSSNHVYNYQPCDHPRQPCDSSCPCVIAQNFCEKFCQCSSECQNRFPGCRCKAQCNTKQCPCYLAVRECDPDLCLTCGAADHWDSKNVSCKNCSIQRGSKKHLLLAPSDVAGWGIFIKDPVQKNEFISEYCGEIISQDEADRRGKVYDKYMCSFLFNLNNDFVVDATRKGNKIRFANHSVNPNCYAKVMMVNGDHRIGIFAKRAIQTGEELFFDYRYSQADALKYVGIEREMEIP
Chain of EZH2 (O75530 whole entry partner): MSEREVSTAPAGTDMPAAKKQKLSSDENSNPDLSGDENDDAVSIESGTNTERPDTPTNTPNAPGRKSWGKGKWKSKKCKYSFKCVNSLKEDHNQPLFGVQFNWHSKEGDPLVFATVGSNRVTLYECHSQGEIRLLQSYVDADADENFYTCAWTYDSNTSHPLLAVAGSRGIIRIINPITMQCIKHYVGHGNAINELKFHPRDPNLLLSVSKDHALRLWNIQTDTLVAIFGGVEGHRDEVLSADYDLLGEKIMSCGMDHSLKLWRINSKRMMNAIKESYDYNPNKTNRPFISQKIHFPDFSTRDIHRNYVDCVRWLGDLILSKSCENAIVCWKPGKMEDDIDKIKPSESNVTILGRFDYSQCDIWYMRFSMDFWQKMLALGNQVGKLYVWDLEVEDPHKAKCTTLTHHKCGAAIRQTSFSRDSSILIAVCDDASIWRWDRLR
Chain of EZH2 (Q15022 whole entry partner): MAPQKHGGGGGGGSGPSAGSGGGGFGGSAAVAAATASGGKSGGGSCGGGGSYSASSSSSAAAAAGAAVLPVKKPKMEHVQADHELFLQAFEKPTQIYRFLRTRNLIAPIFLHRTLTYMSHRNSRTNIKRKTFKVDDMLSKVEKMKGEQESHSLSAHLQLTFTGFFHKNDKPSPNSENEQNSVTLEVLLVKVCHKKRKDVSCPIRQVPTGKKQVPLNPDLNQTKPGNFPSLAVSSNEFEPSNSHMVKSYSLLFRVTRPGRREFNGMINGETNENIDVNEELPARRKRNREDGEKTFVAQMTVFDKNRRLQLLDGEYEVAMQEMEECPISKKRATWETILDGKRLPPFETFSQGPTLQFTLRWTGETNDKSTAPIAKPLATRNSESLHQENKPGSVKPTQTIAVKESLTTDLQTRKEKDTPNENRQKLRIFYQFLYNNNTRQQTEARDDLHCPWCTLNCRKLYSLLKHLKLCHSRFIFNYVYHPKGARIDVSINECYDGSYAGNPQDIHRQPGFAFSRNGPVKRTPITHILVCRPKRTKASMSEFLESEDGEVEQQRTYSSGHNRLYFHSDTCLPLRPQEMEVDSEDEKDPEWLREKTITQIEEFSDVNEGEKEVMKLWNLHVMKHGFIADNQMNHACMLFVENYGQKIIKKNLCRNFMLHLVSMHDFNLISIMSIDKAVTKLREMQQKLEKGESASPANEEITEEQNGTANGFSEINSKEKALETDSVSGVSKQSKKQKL
Chain of EZH2 (Q09028 whole entry partner): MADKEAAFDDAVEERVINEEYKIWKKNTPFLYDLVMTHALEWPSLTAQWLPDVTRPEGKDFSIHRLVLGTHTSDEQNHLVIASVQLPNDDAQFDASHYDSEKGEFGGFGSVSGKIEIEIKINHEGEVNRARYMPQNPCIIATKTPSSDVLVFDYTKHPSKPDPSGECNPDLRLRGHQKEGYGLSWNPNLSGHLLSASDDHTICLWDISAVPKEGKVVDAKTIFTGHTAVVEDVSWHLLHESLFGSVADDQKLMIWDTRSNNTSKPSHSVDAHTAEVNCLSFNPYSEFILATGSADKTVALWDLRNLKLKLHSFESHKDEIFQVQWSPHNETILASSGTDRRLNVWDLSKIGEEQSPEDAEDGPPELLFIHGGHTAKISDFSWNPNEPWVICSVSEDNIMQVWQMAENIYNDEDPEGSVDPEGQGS
Chain of EZH2 (Q6ZN18 whole entry partner): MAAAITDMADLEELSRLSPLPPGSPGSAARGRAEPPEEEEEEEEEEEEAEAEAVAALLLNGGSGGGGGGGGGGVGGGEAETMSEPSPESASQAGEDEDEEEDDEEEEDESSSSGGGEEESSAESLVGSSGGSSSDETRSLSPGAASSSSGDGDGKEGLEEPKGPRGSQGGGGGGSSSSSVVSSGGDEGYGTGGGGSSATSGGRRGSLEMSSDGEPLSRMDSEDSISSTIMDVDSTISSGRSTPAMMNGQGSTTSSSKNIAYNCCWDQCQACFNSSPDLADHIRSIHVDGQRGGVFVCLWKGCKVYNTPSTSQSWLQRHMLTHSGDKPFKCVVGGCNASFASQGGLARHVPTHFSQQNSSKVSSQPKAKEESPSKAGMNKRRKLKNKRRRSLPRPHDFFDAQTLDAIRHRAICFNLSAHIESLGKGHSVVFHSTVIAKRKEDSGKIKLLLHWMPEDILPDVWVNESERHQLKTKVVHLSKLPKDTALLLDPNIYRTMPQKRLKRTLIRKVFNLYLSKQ

In the case of Cc1c(C(=O)NC(CCC2CC2)C(=O)Nc2ccc(C#N)cc2)[nH]c2c1C(=O)CC(C)(C)C2 (centres unmarked) [RK-701], the IC50 (EZH2) is reported as greater than 100 µM, the concentration at 1 h ([1]; Time 1 h, read-out: concentration (pharmacokinetic properties)) is reported as 17.9827 µM and 11.6451 µM and the concentration at 1 h ([1]; Time 2 h, read-out: concentration (pharmacokinetic properties)) is reported as 17.6692 µM and 34.4874 µM. The concentration at 1 h ([1]; Time 4 h, read-out: concentration (pharmacokinetic properties)) was 51.2832 µM and 42.7733 µM, the concentration at 1 h ([1]; Time 8 h, read-out: concentration (pharmacokinetic properties)) was 20.155 µM and 23.2902 µM and the AUC(0-inf) [1, 3] was 418 ± 7 µM·h. It also gave a Cmax [1, 3] of 42.4 µM, a Tmax [1, 3] of 4 h and a half-life [1, 3] of 1.4 ± 0.1 h. The concentration at 1 h ([1]; male, Crl:CD1 ICR, mouse, plasma, intraperitoneal, 25 mg/kg, Time 1 h, read-out: concentration (pharmacokinetic properties)) was 9.2 µM, the concentration at 2 h ([1]; male, Crl:CD1 ICR, mouse, plasma, intraperitoneal, 25 mg/kg, Time 2 h, read-out: concentration (pharmacokinetic properties)) was 25.8 µM and the concentration at 4 h ([1]; male, Crl:CD1 ICR, mouse, plasma, intraperitoneal, 25 mg/kg, Time 4 h, read-out: concentration (pharmacokinetic properties)) was 33.1 µM. For the same compound, the concentration at 8 h ([1]; male, Crl:CD1 ICR, mouse, plasma, intraperitoneal, 25 mg/kg, Time 8 h, read-out: concentration (pharmacokinetic properties)) was 28.2 µM, the ALB [2, 4] was 3.3 g/dL and 3.6 g/dL and 3.5 g/dL and 3.9 g/dL and the ALP [2, 4] was 498 IU/L and 658 IU/L and 651 IU/L and 305 IU/L and 323 IU/L. The ALT [2, 4] was 35 IU/L and 24 IU/L and 23 IU/L and 29 IU/L and 31 IU/L, the AST [2, 4] was 65 IU/L and 68 IU/L and 63 IU/L and 58 IU/L and the EOS [2, 4] was 0.8 x 10^2 cells/μL and 0.5 x 10^2 cells/μL and 0.6 x 10^2 cells/μL. The HCT [2, 4] was 43.6% and 43.5% and 41.3% and 46.1% and 43.9%, the HGB [2, 4] was 15.1 g/dL and 14.9 g/dL and 14.2 g/dL and 16.2 g/dL and 15.2 g/dL and the LUC [2, 4] was 0.5 x 10^2 cells/μL and 0.3 x 10^2 cells/μL and 0.2 x 10^2 cells/μL and 0.6 x 10^2 cells/μL. The Lymph [2, 4] was 60.7 x 10^2 cells/μL and 48.8 x 10^2 cells/μL and 34.7 x 10^2 cells/μL and 52.6 x 10^2 cells/μL and 60.4 x 10^2 cells/μL, the MCH [2, 4] was 20.6 pg and 20.7 pg and 19.3 pg and 20.9 pg and 20.5 pg and the MCHC [2, 4] was 34.6 g/dL and 34.4 g/dL and 35.1 g/dL and 34.7 g/dL. The MCV [2, 4] was 59.5 fL and 60.2 fL and 56.2 fL and 59.6 fL and 59.1 fL, the MONO [2, 4] was 1 x 10^2 cells/μL and 0.9 x 10^2 cells/μL and 0.6 x 10^2 cells/μL and 1.2 x 10^2 cells/μL and the NEUT [2, 4] was 8.2 x 10^2 cells/μL and 4.4 x 10^2 cells/μL and 6.1 x 10^2 cells/μL and 5.2 x 10^2 cells/μL and 8.1 x 10^2 cells/μL. For the same compound, the PL [2, 4] was 141 mg/dL and 106 mg/dL and 124 mg/dL and 99 mg/dL and 133 mg/dL, the PLT [2, 4] was 127.6 x 10^4 cells/μL and 123.4 x 10^4 cells/μL and 117.1 x 10^4 cells/μL and 123.6 x 10^4 cells/μL and 146.5 x 10^4 cells/μL and the RBC [2, 4] was 732 x 10^4 cells/μL and 722 x 10^4 cells/μL and 735 x 10^4 cells/μL and 773 x 10^4 cells/μL and 743 x 10^4 cells/μL. For the same compound, the Retic [2, 4] was 223.8 x 10^9 cells/L and 153 x 10^9 cells/L and 208.3 x 10^9 cells/L and 171.7 x 10^9 cells/L and 194.5 x 10^9 cells/L, the T-CHO [2, 4] was 87 mg/dL and 57 mg/dL and 73 mg/dL and 64 mg/dL and the TG [2, 4] was 26 mg/dL and 11 mg/dL and 19 mg/dL and 14 mg/dL and 48 mg/dL. For the same compound, the TP [2, 4] was 5.8 g/dL and 6.1 g/dL and 5.9 g/dL and 6.4 g/dL, the WBC [2, 4] was 71.3 x 10^2 cells/μL and 55 x 10^2 cells/μL and 42.1 x 10^2 cells/μL and 59.6 x 10^2 cells/μL and 70.9 x 10^2 cells/μL and the ALB [2, 5] was 3.3 g/dL and 3.6 g/dL and 3.5 g/dL. The ALP [2, 5] was 418 IU/L and 310 IU/L and 628 IU/L and 586 IU/L and 615 IU/L, the ALT [2, 5] was 28 IU/L and 21 IU/L and 29 IU/L and 25 IU/L and the AST [2, 5] was 71 IU/L and 66 IU/L and 59 IU/L and 54 IU/L and 70 IU/L. The EOS [2, 5] was 0.4 x 10^2 cells/μL and 0.5 x 10^2 cells/μL and 0.7 x 10^2 cells/μL and 0.3 x 10^2 cells/μL, the HCT [2, 5] was 41.9% and 44.7% and 43.2% and 41.2% and 41.8% and the HGB [2, 5] was 13.9 g/dL and 15.2 g/dL and 14.7 g/dL and 14.2 g/dL and 14.4 g/dL. The LUC [2, 5] was 0.5 x 10^2 cells/μL and 0.2 x 10^2 cells/μL and 0.6 x 10^2 cells/μL and 0.4 x 10^2 cells/μL, the Lymph [2, 5] was 67.9 x 10^2 cells/μL and 38.8 x 10^2 cells/μL and 53.8 x 10^2 cells/μL and 52 x 10^2 cells/μL and 52.5 x 10^2 cells/μL and the MCH [2, 5] was 18.8 pg and 19.5 pg and 21.3 pg and 20.8 pg. For the same compound, the MCHC [2, 5] was 33.3 g/dL and 33.9 g/dL and 34.1 g/dL and 34.4 g/dL, the MCV [2, 5] was 56.4 fL and 57.4 fL and 62.5 fL and 56.7 fL and 60.3 fL and the MONO [2, 5] was 1 x 10^2 cells/μL and 0.8 x 10^2 cells/μL and 0.9 x 10^2 cells/μL. The NEUT [2, 5] was 5.1 x 10^2 cells/μL and 8.7 x 10^2 cells/μL and 4.3 x 10^2 cells/μL and 6.5 x 10^2 cells/μL and 8.9 x 10^2 cells/μL, the PL [2, 5] was 116 mg/dL and 127 mg/dL and 128 mg/dL and 100 mg/dL and 113 mg/dL and the PLT [2, 5] was 120.9 x 10^4 cells/μL and 129.5 x 10^4 cells/μL and 130.8 x 10^4 cells/μL and 134.3 x 10^4 cells/μL and 95.6 x 10^4 cells/μL. The RBC [2, 5] was 742 x 10^4 cells/μL and 779 x 10^4 cells/μL and 692 x 10^4 cells/μL and 726 x 10^4 cells/μL and 693 x 10^4 cells/μL, the Retic [2, 5] was 276.8 x 10^9 cells/L and 221.1 x 10^9 cells/L and 186.9 x 10^9 cells/L and 199.2 x 10^9 cells/L and 253.8 x 10^9 cells/L and the T-CHO [2, 5] was 63 mg/dL and 69 mg/dL and 62 mg/dL and 58 mg/dL and 68 mg/dL. For the same compound, the TG [2, 5] was 16 mg/dL and 19 mg/dL and 25 mg/dL and 12 mg/dL and 11 mg/dL, the TP [2, 5] was 5.7 g/dL and 6.1 g/dL and 6 g/dL and 5.8 g/dL and the WBC [2, 5] was 74.9 x 10^2 cells/μL and 49.1 x 10^2 cells/μL and 60.2 x 10^2 cells/μL and 60.7 x 10^2 cells/μL and 63.2 x 10^2 cells/μL. The ALB [2, 6] was 3.4 g/dL and 3.3 g/dL and 3.2 g/dL and 3.5 g/dL, the ALP [2, 6] was 450 IU/L and 547 IU/L and 566 IU/L and 866 IU/L and 399 IU/L and the ALT [2, 6] was 37 IU/L and 26 IU/L and 28 IU/L and 29 IU/L and 25 IU/L. The AST [2, 6] was 63 IU/L and 59 IU/L and 68 IU/L and 70 IU/L and 58 IU/L, the EOS [2, 6] was 0.3 x 10^2 cells/μL and 0.6 x 10^2 cells/μL and 0.8 x 10^2 cells/μL and 0.7 x 10^2 cells/μL and the HCT [2, 6] was 43.3% and 44.1% and 41.3% and 42.5% and 43.5%. For the same compound, the HGB [2, 6] was 14.8 g/dL and 15 g/dL and 14.4 g/dL and 14.6 g/dL, the LUC [2, 6] was 0.4 x 10^2 cells/μL and 0.5 x 10^2 cells/μL and 0.3 x 10^2 cells/μL and 0.9 x 10^2 cells/μL and the Lymph [2, 6] was 61.6 x 10^2 cells/μL and 55.7 x 10^2 cells/μL and 66.9 x 10^2 cells/μL and 49.9 x 10^2 cells/μL and 88.7 x 10^2 cells/μL. For the same compound, the MCH [2, 6] was 20.2 pg and 20.4 pg and 20.6 pg and 20.1 pg, the MCHC [2, 6] was 34.3 g/dL and 34 g/dL and 34.8 g/dL and 34.4 g/dL and the MCV [2, 6] was 59 fL and 60.2 fL and 59.1 fL and 58.3 fL and 58.6 fL. For the same compound, the MONO [2, 6] was 1.3 x 10^2 cells/μL and 0.7 x 10^2 cells/μL and 1.6 x 10^2 cells/μL and 1 x 10^2 cells/μL and 1.4 x 10^2 cells/μL and the NEUT [2, 6] was 7.8 x 10^2 cells/μL and 2.7 x 10^2 cells/μL and 9.7 x 10^2 cells/μL and 9.5 x 10^2 cells/μL and 9.3 x 10^2 cells/μL.
